Data from publication PMC10407255, “Comparison of activity, structure, and dynamics of SF-1 and LRH-1 complexed with small molecule modulators” (The Journal of Biological Chemistry, 2023).
Where two headings read alike, the source gives them in different places.

Columns and labels:
L265M SF-1 mutant = target: T1, L265M SF-1 mutant (Homo sapiens, UniProt Q13285, L265M); test: Luciferase reporter assay, L265M SF-1 mutant; assay type: cell-based; conditions: 0.1, 1, and 10 µM, relative to DMSO control
T1 construct: expressed in transfected cells; host or cells: HeLa
Procedure: Reporter assays were conducted as described previously ([47], [52], [53]). Briefly, HeLa cells were seeded at ∼7500 to 10,000 cells per well in 96-well plates (white-walled, clear bottom) in MEMα + 10% FBS – charcoal/dextran treated. Once cells reached 80 to 90% confluence, they were transfected with LRH-1 (in pCI vector, 5 ng/well) or SF-1 (in pcDNA vector, 5 ng/well), a reporter plasmid with an NR5A response element derived from the SHP promoter cloned upstream of Firefly Luciferase (in pGL3-Basic vector, 50 ng/well), and a plasmid expressing Renilla Luciferase constitutively from a CMV promoter (1 ng/well). Cells were transfected with FuGENE at a ratio of 3:1 (FuGENE:DNA). Twenty-four hours after transfection, compounds were diluted in Opti-MEM and introduced to cells at the final concentrations indicated in figures (final DMSO concentration was 0.37%). Luciferase signal was measured after ∼24 h using the DualGlo kit (Promega) with a BioTek Neo plate reader. Each experiment was conducted with three biological replicates, each with three technical replicates averaged prior to data analysis. Firefly Luciferase signal for each well was divided by the well’s Renilla Luciferase signal intensity and then normalized relative to the DMSO control. Data were analyzed with GraphPad Prism (version 9) using a stimulating dose–response curve (Hill slope = 1). […]

LRH-1 = target: T2, LRH-1 (Homo sapiens, UniProt O00482); test: Luciferase reporter assay, LRH-1, HeLa cells; assay type: cell-based; conditions: for specificity for LRH-1 over SF-1 in reporter assays: 0.1, 1, and 10 μM, LRH-1 vs SF-1 reporter; for LRH-1 activation in luciferase reporter assay: small molecule at 0.1, 1, and 10 μM, relative to DMSO control
T2 construct: expressed in transfected cells; host or cells: HeLa
Procedure: (§1) Reporter assays were conducted as described previously ([47], [52], [53]). Briefly, HeLa cells were seeded at ∼7500 to 10,000 cells per well in 96-well plates (white-walled, clear bottom) in MEMα + 10% FBS – charcoal/dextran treated. Once cells reached 80 to 90% confluence, they were transfected with LRH-1 (in pCI vector, 5 ng/well) or SF-1 (in pcDNA vector, 5 ng/well), a reporter plasmid with an NR5A response element derived from the SHP promoter cloned upstream of Firefly Luciferase (in pGL3-Basic vector, 50 ng/well), and a plasmid expressing Renilla Luciferase constitutively from a CMV promoter (1 ng/well). Cells were transfected with FuGENE at a ratio of 3:1 (FuGENE:DNA). Twenty-four hours after transfection, compounds were diluted in Opti-MEM and introduced to cells at the final concentrations indicated in figures (final DMSO concentration was 0.37%). Luciferase signal was measured after ∼24 h using the DualGlo kit (Promega) with a BioTek Neo plate reader. Each experiment was conducted with three biological replicates, each with three technical replicates averaged prior to data analysis. Firefly Luciferase signal for each well was divided by the well’s Renilla Luciferase signal intensity and then normalized relative to the DMSO control. Data were analyzed with GraphPad Prism (version 9) using a stimulating dose–response curve (Hill slope = 1).

SF-1 LBD Y436F = target: T3, SF-1 LBD Y436F (Homo sapiens, UniProt Q13285, Y436F); test: FP assay (forward binding and competition), SF-1 Y436F; conditions: for effect of pocket mouth mutation Y436 on binding affinity: compared to WT, FP competition
T3 construct: transformed with the SF-1 LBD (amino acids 218–461) in the pLIC-His vector; His (pLIC-His vector); made in house
Procedure: (§2) FP assays were performed as described previously ([38], [47], [53]). Briefly, experiments were conducted in black, polystyrene, non-binding surface 384-well plates (Corning Inc., Corning, NY) with 30 μl volumes in assay buffer (150 mM NaCl, 20 mM Tris-HCl, 5% glycerol, pH 7.4). […] Polarization was monitored on a Neo plate reader (Biotek, Winooski, VT) at an excitation/emission wavelength of 485/528 nm. Plates were incubated overnight at 4 °C and centrifuged at 2000g for 2 min before polarization measurement. Nine technical replicates were conducted over three experiments and compiled binding data were baseline-corrected to wells with no protein and fit with a one-site binding curve in GraphPad Prism version 7 (GraphPad, Inc, La Jolla, CA). 6N conjugated to fluorescein amidite (FAM) (10 nM/well – 0.8 times the affinity of SF-1 for 6N-FAM) was incubated with SF-1 LBD (25 nM/well – 60% of the forward binding Bmax). Unlabeled compounds were added at concentrations indicated in figures with DMSO in each well held constant at 6.7% v/v. Each experiment was performed two or three times with four technical replicates each. Technical replicates were averaged and normalized independently prior to final data analysis.
(§3) All mutations other than L265M were introduced using the QuikChange II Site-Directed Mutagenesis Kit (Agilent). The Q5 Site-Directed Mutagenesis Kit (New England Biolabs) was used to generate the L265M mutant. All constructs were sequenced prior to use.

SF-1 LBD [1] = target: T4, SF-1 LBD (Homo sapiens, UniProt Q13285); test: FP assay (6N-FAM forward binding and competition), wild-type SF-1; conditions: for Ki: FP competition with 10 nM 6N-FAM, 25 nM SF-1 LBD, 95% confidence intervals in brackets, read-out: Ki (inhibition constant)
T4 construct: transformed with the SF-1 LBD (amino acids 218–461) in the pLIC-His vector; made in house; host or cells: E. coli BL21(DE3)-pLysS
Procedure: as §2

SF-1 = target: T5, SF-1 (Homo sapiens, UniProt Q13285); test: Luciferase reporter assay, SF-1, HeLa cells; assay type: cell-based; conditions: for EC50: HeLa cells, ~24 h; for luciferase signal at highest concentration: cells treated with 3e-5 M, potentially indicating cell toxicity or compound insolubility, data excluded; for maximum activation: normalized relative to DMSO control; for SF-1 activation in luciferase reporter assay: small molecule at 0.1, 1, and 10 μM, relative to DMSO control
T5 construct: expressed in transfected cells; host or cells: HeLa
Procedure: as §1

SF-1 LBD K440A = target: T6, SF-1 LBD K440A (Homo sapiens, UniProt Q13285, K440A); test: FP assay (forward binding and competition), SF-1 K440A
T6 construct: transformed with the SF-1 LBD (amino acids 218–461) in the pLIC-His vector; His (pLIC-His vector); made in house
Procedure: as §2
All mutations other than L265M were introduced using the QuikChange II Site-Directed Mutagenesis Kit (Agilent). […]

SF-1 LBD T272V = target: T7, SF-1 LBD T272V (Homo sapiens, UniProt Q13285, T272V); test: FP assay (forward binding and competition), SF-1 T272V; conditions: for effect of deep pocket mutation on binding affinity: T272 mutant compared to WT, FP competition
T7 construct: transformed with the SF-1 LBD (amino acids 218–461) in the pLIC-His vector; His (pLIC-His vector); made in house
Procedure: as §2, §3

SF-1 LBD [2] = target: T4, SF-1 LBD; test: Differential scanning fluorimetry (thermal shift assay); assay type: binding; conditions: for Tm (melting temperature): SF-1 LBD pre-exchanged with DLPC, incubated with small molecule overnight; for positive shift in melting temperature: relative to the DLPC phospholipid control
Procedure: Purified SF-1 LBD, pre-exchanged with DLPC (0.2 mg/ml), was combined with small molecules overnight at 4 °C in assay buffer. SYPRO orange dye was added to the complexes the next day, at a final dilution of 1:1000. Complexes were heated at a rate of 0.5 °C/minute on a StepOne Plus thermocycler, using the ROX filter for fluorescence detection. The melting temperature (Tm, 50% unfolding) was calculated using the Bolzman equation GraphPad Prism (version 9). Assays were conducted with nine technical replicates over three experiments.

SF-1 LBD M268L = target: T8, SF-1 LBD M268L (Homo sapiens, UniProt Q13285, M268L); test: FP assay (forward binding and competition), SF-1 M268L; conditions: for effect of deep pocket mutation on binding affinity: M268 mutant compared to WT, FP competition
T8 construct: transformed with the SF-1 LBD (amino acids 218–461) in the pLIC-His vector; His (pLIC-His vector); made in house
Procedure: as §2, §3

[3] = target: T9, CysLite SF-1 (steroidogenic factor-1 ligand binding domain, amino acids 218-461, C247S, C412S) (human, UniProt Q13285 218-461, C247S | C412S); test: crystal structure; cleaved SF-1 CysLite (~5 mg/ml) incubated with 4-fold molar excess of TIF2 peptide at room temperature for 2 h; hanging drop vapor diffusion at 4 °C, Na acetate pH 4.6, glycerol, PEG 4000; crystals soaked 2 days with 6N-10CA; 2.59 Å; conditions: both partners purified
T9 construct: Steroidogenic factor-1 (SF-1); Expressed from the pLic-His vector; His tag cleaved with tobacco etch virus protease; In the crystal the pocket holds 6N-10CA (soaked in) and a bacterial phospholipid modelled as DPPE; also called SF-1 LBD; SF-1 CysLite; source: E. coli BL21(DE3)-pLysS, purified (HisTrap, TEV cleavage, second HisTrap, SEC)

[4] = 95% confidence intervals in brackets, read-out: EC50 (half maximal effective concentration)

T2 sequence (O00482 whole entry): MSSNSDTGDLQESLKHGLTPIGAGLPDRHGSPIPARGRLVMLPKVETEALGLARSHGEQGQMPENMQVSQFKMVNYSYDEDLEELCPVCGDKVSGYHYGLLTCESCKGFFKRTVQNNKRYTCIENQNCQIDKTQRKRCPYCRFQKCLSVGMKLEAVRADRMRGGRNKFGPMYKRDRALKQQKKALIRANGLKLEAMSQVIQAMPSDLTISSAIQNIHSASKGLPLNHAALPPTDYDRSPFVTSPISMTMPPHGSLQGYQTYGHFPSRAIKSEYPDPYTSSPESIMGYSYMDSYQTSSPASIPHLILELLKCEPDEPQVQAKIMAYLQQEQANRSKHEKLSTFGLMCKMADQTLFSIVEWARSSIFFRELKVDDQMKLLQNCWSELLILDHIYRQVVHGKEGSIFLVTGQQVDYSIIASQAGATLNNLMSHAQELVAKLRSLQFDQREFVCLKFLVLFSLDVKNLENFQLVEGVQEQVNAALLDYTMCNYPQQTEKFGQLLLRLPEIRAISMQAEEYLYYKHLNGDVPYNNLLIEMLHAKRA
T8 sequence (Q13285 218-461 M268L): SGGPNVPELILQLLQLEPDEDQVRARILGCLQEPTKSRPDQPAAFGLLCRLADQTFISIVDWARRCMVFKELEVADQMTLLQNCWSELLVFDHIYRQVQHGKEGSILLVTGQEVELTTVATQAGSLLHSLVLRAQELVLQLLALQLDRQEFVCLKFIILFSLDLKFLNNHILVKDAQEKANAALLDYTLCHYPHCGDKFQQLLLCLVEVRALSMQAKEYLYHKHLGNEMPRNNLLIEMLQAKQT
T7 sequence (Q13285 218-461 T272V): as the sequence (Q13285 218-461 M268L) above, with L51M, T55V counted along it
T5 sequence (Q13285 whole entry): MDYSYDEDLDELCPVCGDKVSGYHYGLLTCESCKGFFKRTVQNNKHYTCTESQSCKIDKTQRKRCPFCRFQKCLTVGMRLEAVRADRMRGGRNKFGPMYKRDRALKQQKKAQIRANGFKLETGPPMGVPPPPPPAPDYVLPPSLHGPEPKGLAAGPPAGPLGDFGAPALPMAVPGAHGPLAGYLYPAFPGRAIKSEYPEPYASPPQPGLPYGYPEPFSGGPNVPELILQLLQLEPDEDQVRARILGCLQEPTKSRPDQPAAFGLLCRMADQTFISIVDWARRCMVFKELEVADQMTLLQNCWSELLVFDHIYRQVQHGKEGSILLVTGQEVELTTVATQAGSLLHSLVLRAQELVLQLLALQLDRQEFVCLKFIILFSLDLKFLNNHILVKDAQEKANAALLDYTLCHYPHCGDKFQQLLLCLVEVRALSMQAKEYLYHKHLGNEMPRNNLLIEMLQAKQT
T3 sequence (Q13285 218-461 Y436F): as the sequence (Q13285 218-461 M268L) above, with L51M, Y219F counted along it
T4 sequence (Q13285 218-461): as the sequence (Q13285 218-461 M268L) above, with L51M counted along it
T6 sequence (Q13285 218-461 K440A): as the sequence (Q13285 218-461 M268L) above, with L51M, K223A counted along it
T1 sequence (Q13285 whole entry L265M): as the sequence (Q13285 whole entry) above, with L265M counted along it
T9 sequence (Q13285 218-461 C247S/C412S): as the sequence (Q13285 218-461 M268L) above, with C30S, L51M, C195S counted along it

## C=C(c1ccccc1)[C@@]12CC[C@H](NC(C)=O)C1CC(CCCCCCCCCC(=O)O)=C2c1ccccc1 (mixture of isomers) [2N-10CA]
L265M SF-1 mutant
  activation of L265M SF-1 mutant: failed to activate
LRH-1
  specificity for LRH-1 over SF-1 in reporter assays: specificity for LRH-1 was largely preserved
  LRH-1 activation in luciferase reporter assay: improved agonism

## C=C(c1ccccc1)[C@@]12CC[C@H](NC(N)=O)C1CC(CCCCCCCCCC(=O)O)=C2c1ccccc1 (mixture of isomers) [4N-10CA]
LRH-1
  specificity for LRH-1 over SF-1 in reporter assays: specificity for LRH-1 was largely preserved
  LRH-1 activation in luciferase reporter assay: improved agonism

## C=C(c1ccccc1)[C@@]12CC[C@H](NS(N)(=O)=O)[C@@H]1CC(CCCCCCCCCC(=O)O)=C2c1ccccc1 (racemic) [6N-10CA]
SF-1 LBD Y436F
  effect of pocket mouth mutation Y436 on binding affinity: minimal impact
SF-1 LBD [1]
  Ki: 60 nM
SF-1 LBD [1]; SF-1 Ki (Fig. 3C) vs LRH-1 value of ref 47
  affinity for SF-1 compared with LRH-1: over two orders of magnitude lower
SF-1 LBD [1]; SF-1 binding, FP competition
  improvement in affinity of 6N-10CA over 10CA: ~4 fold
  increase in affinity of 6N-10CA over 6N: ~20 fold
SF-1; read-out: EC50
  EC50: 100 nM
SF-1; SF-1 luciferase reporter
  potency of 6N-10CA relative to 10CA (more potent): 16 fold
SF-1; SF-1 vs LRH-1 value of ref 47
  potency for SF-1 compared with LRH-1: nearly two times less
SF-1
  luciferase signal at highest concentration: drastic decrease in overall signal
  maximum activation: ~1.7
SF-1 LBD K440A; compared to WT, FP competition
  effect of K440A mutation on binding affinity: increased affinity for 6N-10CA was statistically insignificant
SF-1 LBD T272V
  effect of deep pocket mutation on binding affinity: decreased SF-1 binding affinity
SF-1 LBD [2]
  Tm (melting temperature): 58.3 °C
  positive shift in melting temperature: ~6.5 °C
SF-1 LBD M268L
  effect of deep pocket mutation on binding affinity: decreased SF-1 binding affinity

## C=C(c1ccccc1)[C@@]12CC[C@H](NS(N)(=O)=O)[C@@H]1CC(CCCCCCCCCC(=O)Nc1ccc3c(c1)C(=O)OC31c3ccc(O)cc3Oc3cc(O)ccc31)=C2c1ccccc1 (racemic) [6N-FAM, reference compound]
SF-1 LBD Y436F; Y436F, 10 nM 6N-FAM, read-out: probe affinity determined with forward binding assays
  Kd: 9.9 nM
SF-1 LBD [1]; WT SF-1 LBD, 10 nM 6N-FAM, read-out: probe affinity determined with forward binding assays
  Kd: 12 nM
SF-1 LBD K440A; K440A, 10 nM 6N-FAM, read-out: probe affinity determined with forward binding assays
  Kd: 5.5 nM
SF-1 LBD T272V; T272V, 10 nM 6N-FAM, read-out: probe affinity determined with forward binding assays
  Kd: 10.9 nM
SF-1 LBD M268L; M268L, 10 nM 6N-FAM, read-out: probe affinity determined with forward binding assays
  Kd: 19.3 nM

## C=C(c1ccccc1)[C@@]12CC[C@H](NS(N)(=O)=O)[C@@H]1CC(CCCCCC)=C2c1ccccc1 (racemic) [6N]
SF-1 LBD Y436F
  effect of pocket mouth mutation Y436 on binding affinity: minimal impact
SF-1 LBD [1]
  Ki: 1400 nM
SF-1; [4]
  EC50: 130 nM
SF-1
  luciferase signal at highest concentration: drastic decrease in overall signal
  maximum activation: ~1.4
SF-1 LBD [2]
  Tm (melting temperature): 58.6 °C
  positive shift in melting temperature: ~6.5 °C

## C=C(c1ccccc1)[C@@]12CC[C@@H](O)[C@@H]1CC(CCCCCCCCCC(=O)O)=C2c1ccccc1 (racemic) [10CA]
SF-1 LBD Y436F
  effect of pocket mouth mutation Y436 on binding affinity: decreased 10CA binding affinity
SF-1 LBD [1]
  Ki: 250 nM
SF-1; [4]
  EC50: 1600 nM
SF-1 LBD T272V
  effect of deep pocket mutation on binding affinity: decreased SF-1 binding affinity
SF-1 LBD [2]
  Tm (melting temperature): 54.5 °C
  positive shift in melting temperature: ~2 °C
SF-1 LBD M268L
  effect of deep pocket mutation on binding affinity: decreased SF-1 binding affinity

## C=C(c1ccccc1)C12CCC(NC(C)=O)C1CC(CCCCCC)=C2c1ccccc1 (stereo not shown) [2N]
SF-1
  SF-1 activation in luciferase reporter assay: without activating SF-1
LRH-1
  LRH-1 activation in luciferase reporter assay: activated LRH-1

## C=C(c1ccccc1)C12CCC(OC(N)=O)C1CC(CCCCCC)=C2c1ccccc1 (stereo not shown) [3N]
SF-1
  SF-1 activation in luciferase reporter assay: reduced SF-1 activity

## C=C(c1ccccc1)C12CCC(NC(N)=O)C1CC(CCCCCC)=C2c1ccccc1 (stereo not shown) [4N]
SF-1
  SF-1 activation in luciferase reporter assay: without activating SF-1
LRH-1
  LRH-1 activation in luciferase reporter assay: activated LRH-1

## CCCCCCCCCCCC(=O)OC[C@H](COP(=O)([O-])OCC[N+](C)(C)C)OC(=O)CCCCCCCCCCC [DLPC, 1,2-dilauroyl-sn-glycero-3-phosphocholine, reference compound]
SF-1 LBD [2]
  Tm (melting temperature): 52.2 °C

B1: TIF2 peptide (fragment of the coactivator transcriptional intermediate factor 2) (peptide)
peptide: KENALLRYLLDKDD
[3]
  binding result: binds
